The target of the assay is Mycobacterium thermoresistible (Mtr) LpqY (Mycolicibacterium thermoresistibile, UniProt G7CES0). Type of assay: binding. Conditions: single dose MST screen against LpqY.
Sequence of Mycobacterium thermoresistible (Mtr) LpqY (G7CES0 29-471): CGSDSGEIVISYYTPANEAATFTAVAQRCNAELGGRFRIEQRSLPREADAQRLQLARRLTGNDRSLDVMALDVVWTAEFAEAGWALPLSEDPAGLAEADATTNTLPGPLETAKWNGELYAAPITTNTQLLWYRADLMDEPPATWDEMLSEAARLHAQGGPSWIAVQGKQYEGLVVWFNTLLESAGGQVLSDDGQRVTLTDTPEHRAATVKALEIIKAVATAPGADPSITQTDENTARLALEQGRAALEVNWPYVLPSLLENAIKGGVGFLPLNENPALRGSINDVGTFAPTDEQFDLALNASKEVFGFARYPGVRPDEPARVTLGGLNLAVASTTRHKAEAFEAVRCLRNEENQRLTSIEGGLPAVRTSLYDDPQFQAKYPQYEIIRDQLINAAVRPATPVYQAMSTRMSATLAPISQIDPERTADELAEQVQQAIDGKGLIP

In the case of `Brc1c(-c2ccc3c(c2)OCO3)nc2ncccn12` [MMV676377], the “Pathogen Box screen signal/noise ratio” value worked out at 2.9. The value for `COc1cccc(OCC(=O)c2ccc(Br)cc2)c1` [MMV676379] was -0.0278; that for `CC(=O)Nc1ccc(NC(=O)c2cc(-c3cc(Cl)ccc3O)[nH]n2)cc1` [MMV676380] was 1.2; that for `Cn1ncc2c(N3CCOCC3)nc(NCCc3c[nH]c4ccccc34)nc21` [MMV676382] was 0.7. On to `CCC(Sc1nc2ccccc2o1)C(=O)Nc1nccs1` (centres unmarked) [MMV676383], for which the “Pathogen Box screen signal/noise ratio” value was determined as 0.8. The value for `N#Cc1nc(-c2ccccc2F)oc1NCCc1ccccc1` [MMV676384] was 1.0. For `Cc1cccc(Cn2ccc(NC(=O)c3ccc4c(c3)OCO4)n2)c1` [MMV676386], the “Pathogen Box screen signal/noise ratio” value turned out to be 2.9.

For `COc1cccc(-n2nnnc2S(=O)(=O)Cc2ccccc2)c1` [MMV676388], the “Pathogen Box screen signal/noise ratio” value came out at 0.952. For the compound `O=C(c1[nH]nc2c1CCCC2)N1CCN(Cc2ccc3c(c2)OCO3)CC1` [MMV676389], the “Pathogen Box screen signal/noise ratio” value was found to be 1.7. With `O=C(Nc1cccnc1)c1c(O)c2cccc3c2n(c1=O)CC3` [MMV676395], the “Pathogen Box screen signal/noise ratio” value is given as 2.1. The value for `CCS(=O)(=O)N(Cc1ccco1)Cc1cc2ccc(C)cc2nc1O` [MMV676398] was -0.167; that for `c1coc(CNc2nc(N3CCCCC3)nc3ccccc23)c1` [MMV676401] was 1.9. Next, `CC(C)n1ncc2c(C(=O)NCC(c3cccs3)N3CCOCC3)cc(-c3ccccc3)nc21` (centres unmarked) [MMV676406]: 2.6; `O=C(COc1cccc(F)c1)Nc1nc(-c2ccccn2)cs1` [MMV676409]: 0.449. The value for `CC(Oc1ccccc1)C(=O)Nc1nc(-c2ccccn2)cs1` (centres unmarked) [MMV676411] was 0.0833; that for `N#Cc1nc(-c2ccccc2)oc1S(=O)(=O)c1ccc(Cl)cc1` [MMV676412] was 0.6; that for `Cc1ccc(NC(=O)CC2COc3ccccc3O2)cc1Cl` (centres unmarked) [MMV676431] was 2.3. As for `Cc1ccc2nc(Cl)c(CNCc3cccs3)cc2c1` [MMV676439], the “Pathogen Box screen signal/noise ratio” value amounted to 0.278. On to `CC(C)c1ncc(-c2ccncc2)c([C@H]2CC[C@H](CNC(=O)c3cccnc3)CC2)n1` [MMV676442], for which the “Pathogen Box screen signal/noise ratio” value came to 0.8. Next, `O=C(NC1CCCCC1)N1CCN(Cc2ccc3c(c2)OCO3)CC1` [MMV676444]: 1.3; `CCCn1c(CNc2ccccc2O)nc2ccccc21` [MMV676445]: 0.8. Next, `CCc1nc2ccccc2n1CC(O)COc1cc(C)ccc1Cl` (centres unmarked) [MMV676449]: 1.2; `CCOC(=O)c1cc(-c2csc(Nc3c(C)cc(C)cc3C)n2)on1` [MMV676461]: 2.4.

As for `NC(CC(=O)c1ccc(Cl)cc1Cl)C(Cl)(Cl)Cl` (centres unmarked) [MMV676468], the “Pathogen Box screen signal/noise ratio” value came to 0.8. `CCOc1ccc(OCC(=O)Nc2cc(C)cc(C)c2)cc1` [MMV676470]: the “Pathogen Box screen signal/noise ratio” value was found to be 0.2. Regarding `COc1cccc(OC)c1C(=O)Nc1ccc(Cl)c(-c2nc3ccccc3s2)c1` [MMV676472], the “Pathogen Box screen signal/noise ratio” value is recorded as 0.348. For `Cc1cc(C)cc(COc2ccc3c(C)c(CCC(=O)O)c(=O)oc3c2C)c1` [MMV676476], the “Pathogen Box screen signal/noise ratio” value worked out at 2.7.

For the compound `CCc1c(C)nc(-n2nc(C)cc2NC(=O)c2ccccc2SC)[nH]c1=O` [MMV676477], the “Pathogen Box screen signal/noise ratio” value is reported as 0.7. The value for `O=C(C1CCN(c2nnc(-n3cccc3)s2)CC1)N1CCC(Cc2ccccc2)CC1` [MMV676478] was 0.661; that for `COC(=O)c1c(NC(=O)c2cc3ccccc3oc2=O)sc2c1CCN(Cc1ccccc1)C2` [MMV676480] was 1.3; that for `O=C(Nc1nnc(S)s1)c1cc(Br)ccc1Cl` [MMV676492] was 0.9. Next, `O=C(Nc1nnc(-c2ccc(Cl)s2)o1)c1ccc(Cl)s1` [MMV676501]: 0.556; `Cc1ccc2oc(-c3cc(NC(=O)Cc4ccccc4)ccc3Cl)nc2c1` [MMV676509]: 3.4. Regarding `O=C(Nc1nc(-c2ccccn2)cs1)c1cncn1-c1ccccc1` [MMV676512], the “Pathogen Box screen signal/noise ratio” value was 0.561. `O=C(c1cc2ccccc2o1)N1CCN(Cc2ccc3c(c2)OCO3)CC1` [MMV676520]: the “Pathogen Box screen signal/noise ratio” value came out at 1.1. `COc1ccc(-c2cc(NC(=O)c3ccc(F)cc3Cl)ccc2OC)cc1` [MMV676526]: the “Pathogen Box screen signal/noise ratio” value was determined as 0.556. Consider `Cc1cccc(NC(=O)c2cc(S(=O)(=O)N(C)c3ccc(F)cc3)ccc2Cl)n1` [MMV676528], for which the “Pathogen Box screen signal/noise ratio” value was determined as 1.1. The value for `COCC(C)NC(=O)CSc1ncnc2sc(-c3ccccc3)cc12` (centres unmarked) [MMV676536] was 1.9; that for `COc1ccc(Nc2ccccc2NC(=O)c2ccc(O)nc2)cc1` [MMV676554] was 1.8. Regarding `Cc1nnc(NCc2cccc(Cl)c2)c2ccccc12` [MMV676555], the “Pathogen Box screen signal/noise ratio” value was found to be 0.9. As for `CC1=NN(c2nc3ccccc3s2)C(=O)C1Cc1cccc2ccccc12` (centres unmarked) [MMV676558], the “Pathogen Box screen signal/noise ratio” value was 3.8. Next, `COc1ccc(-c2nc(-c3cccc(NC(=O)Cc4ccc(F)cc4)c3)no2)cc1OC` [MMV676571]: 3.5; `O=C(NC1=NCCS1)c1sc2cc(F)ccc2c1Cl` [MMV676584]: 1.1. On to `Nc1c2c(nc3sc4c(c13)CCCC4)CCCC2` [MMV676588], for which the “Pathogen Box screen signal/noise ratio” value is 0.449.

For `O=C(CCC1CCCCC1)Nc1cccc(-c2nnc(-c3ccco3)o2)c1` [MMV676589], the “Pathogen Box screen signal/noise ratio” value worked out at 0.6.

Consider `CCCn1nnc(NC(=O)COc2ccc(C3CCCCC3)cc2)n1` [MMV676597], for which the “Pathogen Box screen signal/noise ratio” value is on record as 0.551. Take `CC(C)(C)n1nc(Cc2cccc3ccccc23)c2c(N)ncnc21` [MMV676599]: the “Pathogen Box screen signal/noise ratio” value worked out at 0.6. In the case of `CO[C@@H](C(=O)N1Cc2[nH]nc(NC(=O)c3ccc(N4CCN(C)CC4)cc3)c2C1)c1ccccc1` [MMV676600], the “Pathogen Box screen signal/noise ratio” value came out at 0.6. The value for `CC1COC2(CCN(c3nc(=O)c4cc(C(F)(F)F)cc([N+](=O)[O-])c4s3)CC2)O1` (centres unmarked) [MMV676603] was 1.8; that for `Cc1ncc(-c2ccnc(Nc3ccc(S(C)(=O)=O)cc3)n2)n1C(C)C` [MMV676604] was 4.2. On to `C[C@]1(O)C[C@@H](c2nc(-c3ccc4ccc(-c5ccccc5)nc4c3)c3c(N)nccn32)C1` [MMV676605], for which the “Pathogen Box screen signal/noise ratio” value worked out at 0.9. For `O=C(c1ccc(NCCO)cc1)C1C[C@H]1c1ccc(Cl)cc1` (some centres unmarked) [MMV676877], the “Pathogen Box screen signal/noise ratio” value was found to be 0.0. The value for `CCn1cnc2c(Nc3cc(F)cc(F)c3)nc(C#N)nc21` [MMV676881] was 0.536. As for `NC(=O)c1cc(-c2ccsc2)ccc1OCCOc1ccccc1` [MMV687138], the “Pathogen Box screen signal/noise ratio” value is reported as 1.8.

Take `CCCCS(=O)(=O)Nc1ccc2cnn(C)c2c1` [MMV687145]: the “Pathogen Box screen signal/noise ratio” value worked out at 1.4. As for `Cc1cc(C)c2cc(C(=O)NC3CCCCCCC3)[nH]c2c1` [MMV687146], the “Pathogen Box screen signal/noise ratio” value amounted to 1.1. For the compound `COc1ccc(Cn2cnc3c(-c4ccco4)nc(Cl)nc32)cc1` [MMV687170], the “Pathogen Box screen signal/noise ratio” value is given as 1.0. For `O=C(C1CCN(c2cc(-n3cccc3)ncn2)CC1)N1CCc2ccccc2C1` [MMV687172], the “Pathogen Box screen signal/noise ratio” value stood at 0.431. The value for `CCc1ccc([C@@H]2C[C@H](C(F)(F)F)n3ncc(C(=O)NCc4ccc(OC)cc4)c3N2)cc1` [MMV687180] was 1.9; that for `COc1ccc2nc(C)cc(OCC(=O)Nc3ccccc3OC)c2c1` [MMV687188] was 1.7; that for `COc1ccc2nc(C)cc(OCC(=O)NCc3ccccc3)c2c1` [MMV687189] was 0.0536. On to `CC(C)(C(=O)Nc1ccc(F)cc1)n1cc(-c2ccccc2F)cn1` [MMV687239], for which the “Pathogen Box screen signal/noise ratio” value turned out to be 0.467. Take `NC(=O)c1cc(Br)ccc1OCCOc1ccccc1` [MMV687243]: the “Pathogen Box screen signal/noise ratio” value was 0.4.

In the case of `CN1CCN(S(=O)(=O)c2ccc(-c3ccc4c(Nc5ccc6nn[nH]c6c5)ccnc4c3)cc2)CC1` [MMV687246], the “Pathogen Box screen signal/noise ratio” value worked out at 2.8. The value for `Nc1nc2ccc(-c3cncc(Oc4ccc(F)cc4)c3)cc2[nH]1` [MMV687248] was 0.2. `Cn1c(=O)c2c(S(C)(=O)=O)snc2n(C)c1=O` [MMV687251]: the “Pathogen Box screen signal/noise ratio” value was 0.0729. Next, `CCCCc1ccc(C(=O)Nc2nccc3ccccc23)nc1` [MMV687254]: 0.0729; `CC(C)=CCC/C(C)=C\CNCCNC1C2CC3CC(C2)CC1C3` (centres unmarked) [MMV687273]: 1.3. The value for `CCc1nc2ccc(Cl)cn2c1C(=O)NCc1ccc(N2CCC(c3ccc(OC(F)(F)F)cc3)CC2)cc1` [MMV687696] was 1.0. The value for `O=C(NCc1cc(Cl)cc(Cl)c1)c1c(C(F)(F)F)nc2ccccn12` [MMV687699] was 0.8. For `Nc1ncnc2c1ncn2[C@@H]1O[C@H](COS(=O)(=O)NC(=O)c2ccccc2O)[C@@H](O)[C@H]1O` [MMV687700], the “Pathogen Box screen signal/noise ratio” value stood at 1.1. For `COc1cccc(-c2nc3c(N4CCCC4)cccc3n2CC2CCCN2)n1` (centres unmarked) [MMV687703], the “Pathogen Box screen signal/noise ratio” value is 1.3. The value for `c1ccc(Oc2ccc(-c3cc(N4CCNCC4)[nH]n3)cc2)cc1` [MMV687706] was -0.0238; that for `O=C1O[C@@H](CO)CN1c1cc(F)c(C2=CCN(Cc3ccccc3)CC2)c(F)c1` [MMV687729] was 1.5.

Source of the values: PMC9579956 (RSC Medicinal Chemistry, 2022).
